We go through five compounds from US20260001928A1 (CORTERIA PHARMACEUTICALS, priority 2022, published 2026).

Each structure is given as a SMILES string. *1 amine or outer side, *2 acyl side, *3 side chain or, on linkers, in order; H or OH if unused. Where a SMILES comes first, the peptide text is derived from it. Side-chain parts run from the residue outwards. [ ]: non-standard residue; d: D form. The star is where a group is joined. C20 diacid = O=C(O)CCCCCCCCCCCCCCCCCCC(=O)*; C18 diacid = O=C(O)CCCCCCCCCCCCCCCCC(=O)*; γGlu = O=C(O)[C@H](CCC(=O)[*:2])N[*:1]; NMeI = CC[C@H](C)[C@H](NC)C(=O)O; αMeL = CC(C)C[C@](C)(N)C(=O)O; AEEA = NCCOCCOCC(=O)O; Aib = CC(C)(N)C(=O)O

The nature of data set [1]: In vitro plasma stability, rat plasma. Format: in vitro ADME. Particulars: Rat PLM, 37° C.; for remaining at 2 h: male, Sprague Dawley, plasma. On the set-up: remaining at 2 h: dose or concentration left out as unconfirmed.
A short description of data set [2]: In vitro subcutaneous tissue supernatant (SCts) stability and metabolite identification, rat. Particulars: male, Sprague Dawley; rat subcutaneous tissue supernatant (SCts), 37° C, 2 h. Format: in vitro ADME. On the set-up: remaining at 2 h: dose or concentration left out as unconfirmed.
Data set [3] can be described thus: Chemical stability in buffer (pH 7.4 / pH 4.5), % purity loss. Format: physicochemical. Particulars: 40° C. vs 5° C., 14 or 28 days; for Buffer stability pH 7.4 % purity loss: 100 mM phosphate buffer pH 7.4; for Buffer stability pH 4.5 % purity loss: 100 mM acetate buffer pH 4.5. An outline of the steps:
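Compounds dissolved at 10 mg/mL target in 100 mM phosphate (pH 7.4) or 100 mM acetate (pH 4.5) buffer for 1 h at room temperature, then centrifuged. Diluted supernatant stored at 5 °C or 40 °C for 14 or 28 days; % purity loss by LC-UV.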

Data set [4] in a line: Pharmacokinetics in male Sprague Dawley rats after subcutaneous administration. Format: in vivo. Particulars: plasma, rat, SC, 0.1 mg/kg.
The nature of the next data set: in vitro. On the set-up: dose or concentration left out as unconfirmed. To be noted: dog, plasma.
Data set [5] can be described thus: In vitro plasma stability, minipig plasma. On the set-up: remaining at 2 h: dose or concentration left out as unconfirmed. Particulars: Minipig PLM, 37° C. Format: in vitro ADME.
The target of a further data set is T1, rat CRF2 a (Rattus norvegicus, UniProt P47866).
T1 construct: host or cells: A7R5 rat aortic smooth muscle cells
In words: Activity at rat CRF2 a, cAMP assay in A7R5 rat aortic smooth muscle cells. To be noted: 0% HSA, 100% = Sauvagine at 100 nM. Format: cell-based. An outline of the steps:
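cAMP response measured in frozen-stock A7R5 rat aortic smooth muscle cells, 5000 cells/well final. 100% activation defined by Sauvagine at 100 nM in control wells.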

T1 sequence (P47866 27-431 isoform P47866-2 limits assumed): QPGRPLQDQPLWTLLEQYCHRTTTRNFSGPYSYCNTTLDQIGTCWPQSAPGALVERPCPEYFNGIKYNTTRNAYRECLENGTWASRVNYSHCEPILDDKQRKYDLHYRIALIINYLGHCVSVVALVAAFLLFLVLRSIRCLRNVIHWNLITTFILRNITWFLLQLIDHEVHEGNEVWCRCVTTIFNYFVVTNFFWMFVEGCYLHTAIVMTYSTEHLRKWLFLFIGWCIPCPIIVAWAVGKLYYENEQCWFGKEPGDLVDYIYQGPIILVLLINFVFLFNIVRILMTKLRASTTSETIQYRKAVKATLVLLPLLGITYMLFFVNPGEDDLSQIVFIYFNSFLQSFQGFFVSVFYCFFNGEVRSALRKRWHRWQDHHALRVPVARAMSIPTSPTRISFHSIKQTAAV

Turning to `CC[C@H](C)[C@H](NC)C(=O)N[C@H](C(=O)N[C@@H](CC(C)C)C(=O)N[C@@H](CO)C(=O)N[C@@H](CC(C)C)C(=O)N[C@@H](CC(=O)O)C(=O)N[C@@H](C(=O)N1CCC[C@H]1C(=O)N[C@H](C(=O)N[C@@H](CCCCN)C(=O)N[C@@H](CC(C)C)C(=O)N[C@@H](CCCCNC(=O)CC[C@H](NC(=O)CCCCCCCCCCCCCCCCCCC(=O)O)C(=O)O)C(=O)N[C@@H](CCCCN)C(=O)N[C@H](C(=O)N[C@@H](CC(C)C)C(=O)N[C@@H](CC(C)C)C(=O)N[C@@H](CCC(=O)O)C(=O)N[C@@H](CCC(N)=O)C(=O)N[C@@H](CCC(=O)O)C(=O)N[C@@H](CCCCN)C(=O)N[C@@H](CCC(N)=O)C(=O)N[C@@H](CCCCN)C(=O)N[C@@H](CCC(=O)O)C(=O)N[C@@H](CCC(N)=O)C(=O)N[C@@H](CCCNC(=N)N)C(=O)N[C@@H](CCC(=O)O)C(=O)N[C@@H](CCC(N)=O)C(=O)N[C@@H](C)C(=O)N[C@@H](CCC(=O)O)C(=O)N[C@H](C(=O)N[C@@H](CC(N)=O)C(=O)NC(C)(C)C(=O)N[C@@H](CCC(N)=O)C(=O)N[C@H](C(=O)N[C@@H](CC(C)C)C(=O)N[C@@H](C)C(=O)N[C@@H](CCC(N)=O)C(=O)N[C@H](C(N)=O)C(C)C)[C@@H](C)CC)[C@@H](C)O)[C@@H](C)CC)[C@@H](C)CC)C(C)C)C(C)C` [compound 218] (H-[NMeI]VLSLD[dV]PIKLK([γGlu-C20 diacid])KILLEQEKQKEQREQAETN[Aib]QILAQV-NH2), the fraction remaining at 2 h in data set [1] was 109%; in data set [2], 71%; in the data set “in vitro” it was 102%. In addition, the “Buffer stability pH 7.4 % purity loss” value in data set [3] is listed as 0.0/Not Tested %. In addition, the AUC(0-t) in data set [4] came out at 4120 ng·h/mL. In data set [4], this compound gave a Cmax of 115 ng/mL.

In the case of `CC[C@H](C)[C@H](NC)C(=O)N[C@H](C(=O)N[C@@H](CC(C)C)C(=O)N[C@@H](CO)C(=O)N[C@@H](CC(C)C)C(=O)N[C@@H](CC(=O)O)C(=O)N[C@@H](C(=O)N1CCC[C@H]1C(=O)N[C@H](C(=O)N[C@@H](CCCCN)C(=O)N[C@@H](CC(C)C)C(=O)N[C@@H](CCCCNC(=O)COCCOCCNC(=O)COCCOCCNC(=O)CC[C@H](NC(=O)CCCCCCCCCCCCCCCCC(=O)O)C(=O)O)C(=O)N[C@@H](CCCCN)C(=O)N[C@H](C(=O)N[C@@H](CC(C)C)C(=O)N[C@@H](CC(C)C)C(=O)N[C@@H](CCC(=O)O)C(=O)N[C@@H](CCC(N)=O)C(=O)N[C@@H](CCC(=O)O)C(=O)N[C@@H](CCCCN)C(=O)N[C@@H](CCC(N)=O)C(=O)N[C@@H](CCCCN)C(=O)N[C@@H](CCCCN)C(=O)N[C@@H](CCC(N)=O)C(=O)N[C@@H](CCCNC(=N)N)C(=O)N[C@@H](CCC(=O)O)C(=O)N[C@@H](CCC(N)=O)C(=O)N[C@@H](C)C(=O)N[C@@H](CCC(=O)O)C(=O)N[C@H](C(=O)N[C@@H](CC(N)=O)C(=O)NC(C)(C)C(=O)N[C@@H](CCC(N)=O)C(=O)N[C@H](C(=O)N[C@@H](CC(C)C)C(=O)N[C@@H](C)C(=O)N[C@@H](CCC(N)=O)C(=O)N[C@H](C(N)=O)C(C)C)[C@@H](C)CC)[C@@H](C)O)[C@@H](C)CC)[C@@H](C)CC)C(C)C)C(C)C` [compound 118] (H-[NMeI]VLSLD[dV]PIKLK([AEEA-AEEA-γGlu-C18 diacid])KILLEQEKQKKQREQAETN[Aib]QILAQV-NH2), the “% remaining at 2 hours” value in data set [1] is on record as 128%. The “% remaining at 2 hours” value in data set [5] was found to be 126%. Moreover, in data set [3], the “Buffer stability pH 4.5 % purity loss” value is recorded as 0/0 ^ % and the “Buffer stability pH 7.4 % purity loss” value was 0/0 ^ %. In data set [4], this compound registered an AUC(0-t) of 3540 ng·h/mL and a Cmax of 225 ng/mL.

For `CC[C@H](C)[C@H](NC(C)=O)C(=O)N[C@H](C(=O)N[C@@H](CC(C)C)C(=O)N[C@@H](CO)C(=O)N[C@@H](CC(C)C)C(=O)N[C@@H](CC(=O)O)C(=O)N[C@@H](C(=O)N1CCC[C@H]1C(=O)N[C@H](C(=O)N[C@@H](CCCCN)C(=O)N[C@@](C)(CC(C)C)C(=O)N[C@@H](CCCCNC(=O)COCCOCCNC(=O)COCCOCCNC(=O)CC[C@H](NC(=O)CCCCCCCCCCCCCCCCC(=O)O)C(=O)O)C(=O)N[C@@H](CCCCN)C(=O)N[C@H](C(=O)N[C@@H](CC(C)C)C(=O)N[C@@H](CC(C)C)C(=O)N[C@@H](CCC(=O)O)C(=O)N[C@@H](CCC(N)=O)C(=O)N[C@@H](CCC(=O)O)C(=O)N[C@@H](CCCCN)C(=O)N[C@@H](CCC(N)=O)C(=O)N[C@@H](CCCCN)C(=O)N[C@@H](CCCCN)C(=O)N[C@@H](CCC(N)=O)C(=O)N[C@@H](CCCNC(=N)N)C(=O)N[C@@H](CCC(=O)O)C(=O)N[C@@H](CCC(N)=O)C(=O)N[C@@H](C)C(=O)N[C@@H](CCC(=O)O)C(=O)N[C@H](C(=O)N[C@@H](CC(N)=O)C(=O)NC(C)(C)C(=O)N[C@@H](CCC(N)=O)C(=O)N[C@H](C(=O)N[C@@H](CC(C)C)C(=O)N[C@@H](C)C(=O)N[C@@H](CCC(N)=O)C(=O)N[C@H](C(N)=O)C(C)C)[C@@H](C)CC)[C@@H](C)O)[C@@H](C)CC)[C@@H](C)CC)C(C)C)C(C)C` [compound 110] (Ac-IVLSLD[dV]PIK[αMeL]K([AEEA-AEEA-γGlu-C18 diacid])KILLEQEKQKKQREQAETN[Aib]QILAQV-NH2), the amount remaining at 2 h in data set [1] was determined as 95%; in data set [5] (pig, plasma), 106%; in data set [2] it was 77%. Moreover, the “Buffer stability pH 7.4 % purity loss” value in data set [3] is given as 0/nd ^ %. In data set [4], the AUC(0-t) is 4430 ng·h/mL. The Cmax in data set [4] came out at 291 ng/mL.

In the case of `CC[C@H](C)[C@H](NC(C)=O)C(=O)N[C@H](C(=O)N[C@@H](CC(C)C)C(=O)N[C@@H](CO)C(=O)N[C@@H](CC(C)C)C(=O)N[C@@H](CC(=O)O)C(=O)N[C@@H](C(=O)N1CCC[C@H]1C(=O)N[C@H](C(=O)N[C@@H](CCCCN)C(=O)N[C@@H](CC(C)C)C(=O)N[C@@H](CCCCNC(=O)CC[C@H](NC(=O)CCCCCCCCCCCCCCCCCCC(=O)O)C(=O)O)C(=O)N[C@@H](CCCCN)C(=O)N[C@H](C(=O)N[C@@H](CC(C)C)C(=O)N[C@@H](CC(C)C)C(=O)N[C@@H](CCC(=O)O)C(=O)N[C@@H](CCC(N)=O)C(=O)N[C@@H](CCC(=O)O)C(=O)N[C@@H](CCCCN)C(=O)N[C@@H](CCC(N)=O)C(=O)N[C@@H](CCCCN)C(=O)N[C@@H](CCCCN)C(=O)N[C@@H](CCC(N)=O)C(=O)N[C@@H](CCCNC(=N)N)C(=O)N[C@@H](CCC(=O)O)C(=O)N[C@@H](CCC(N)=O)C(=O)N[C@@H](C)C(=O)N[C@@H](CCC(=O)O)C(=O)N[C@H](C(=O)N[C@@H](CC(N)=O)C(=O)NC(C)(C)C(=O)N[C@@H](CCC(N)=O)C(=O)N[C@H](C(=O)N[C@@H](CC(C)C)C(=O)N[C@@H](C)C(=O)N[C@@H](CCC(N)=O)C(=O)N[C@H](C(N)=O)C(C)C)[C@@H](C)CC)[C@@H](C)O)[C@@H](C)CC)[C@@H](C)CC)C(C)C)C(C)C` [compound 206] (Ac-IVLSLD[dV]PIKLK([γGlu-C20 diacid])KILLEQEKQKKQREQAETN[Aib]QILAQV-NH2), the EC50 at rat CRF2 a was 60 pM. In data set [2], the amount remaining at 2 h was 73%. Also, in data set [3], the “Buffer stability pH 4.5 % purity loss” value is reported as 0.0/0.0 ^ % and the “Buffer stability pH 7.4 % purity loss” value is recorded as 0.0/0.0 ^ %. Also, in data set [4], the AUC(0-t) was found to be 5770 ng·h/mL and the Cmax is 197 ng/mL.

As to `CC[C@H](C)[C@H](NC)C(=O)N[C@H](C(=O)N[C@@H](CC(C)C)C(=O)N[C@@H](CO)C(=O)N[C@@H](CC(C)C)C(=O)N[C@@H](CC(=O)O)C(=O)N[C@@H](C(=O)N1CCC[C@H]1C(=O)N[C@H](C(=O)N[C@@H](CCCCN)C(=O)N[C@@H](CC(C)C)C(=O)N[C@@H](CCCCNC(=O)CC[C@H](NC(=O)CCCCCCCCCCCCCCCCCCC(=O)O)C(=O)O)C(=O)N[C@@H](CCCCN)C(=O)N[C@H](C(=O)N[C@@H](CC(C)C)C(=O)N[C@@H](CC(C)C)C(=O)N[C@@H](CCC(=O)O)C(=O)N[C@@H](CCC(N)=O)C(=O)N[C@@H](CCC(=O)O)C(=O)N[C@@H](CCCCN)C(=O)N[C@@H](CCC(N)=O)C(=O)N[C@@H](CCCCN)C(=O)NC(C)(C)C(=O)N[C@@H](CCC(N)=O)C(=O)N[C@@H](CCCNC(=N)N)C(=O)N[C@@H](CCC(=O)O)C(=O)N[C@@H](CCC(N)=O)C(=O)N[C@@H](C)C(=O)N[C@@H](CCC(=O)O)C(=O)N[C@H](C(=O)N[C@@H](CC(N)=O)C(=O)NC(C)(C)C(=O)N[C@@H](CCC(N)=O)C(=O)N[C@H](C(=O)N[C@@H](CC(C)C)C(=O)N[C@@H](C)C(=O)N[C@@H](CCC(N)=O)C(=O)N[C@H](C(N)=O)C(C)C)[C@@H](C)CC)[C@@H](C)O)[C@@H](C)CC)[C@@H](C)CC)C(C)C)C(C)C` [compound 215] (H-[NMeI]VLSLD[dV]PIKLK([γGlu-C20 diacid])KILLEQEKQK[Aib]QREQAETN[Aib]QILAQV-NH2), in data set [2], the share remaining at 2 h came out at 84%. Also, the “Buffer stability pH 7.4 % purity loss” value in data set [3] is 0.0/Not Tested %. In data set [4], the AUC(0-t) was found to be 9410 ng·h/mL and the peak level (Cmax) was 325 ng/mL.
